Measurements published in US11371055B2, “Herbicide resistance genes” (CORTEVA AGRISCIENCE LLC, priority 2005, dated 2022).

Legend:
[1] = tested on: wildtype KY160 tobacco; assay: Cross tolerance test, wildtype tobacco; assay type: in vivo, Nicotiana tabacum
From the text: Two to four T0 individuals surviving high rates of 2,4-D and fluroxypyr were saved from each event and allowed to self fertilize in the greenhouse to give rise to T1 seed. The T1 seed was stratified, and sown into selection trays much like that of Arabidopsis (Example 7.4), followed by selective removal of untransformed nulls in this segregating population with 560 g ai/ha glufosinate (PAT gene selection). Survivors were transferred to individual 3-inch pots in the greenhouse. These lines provided high levels of resistance to 2,4-D in the T0 generation. Improved consistency of response is anticipated in T1 plants not having come directly from tissue culture. These plants were compared against wildtype KY160 tobacco. All plants were sprayed with a track sprayer set at 187 L/ha. The plants were sprayed from a range of 140-2240 g ac/ha 2,4-D dimethylamine salt (DMA), 70-1120 g ace/ha triclopyr or 35-560 g ae/ha fluroxypyr. All applications were formulated in water. Each treatment was replicated 2-4 times. Plants were evaluated at 3 and 14 days after treatment. Plants were assigned injury rating with respect to stunting, chlorosis, and necrosis. The T1 generation is segregating, so some variable response is expected due to difference in zygosity.

[2] = tested on: AAD-12 (v1) tobacco lines (pDAS1580-[1]-018.001, pDAS1580-[1]-004.001, pDAS1580-[1]-020.016); assay: Field tolerance of tobacco, AAD-12 lines; assay type: in vivo, Nicotiana tabacum
Experimental: (§1) Field level tolerance trials were conducted on three AAD-12 (v1) lines (events pDAS1580-[1]-018.001, pDAS1580-[1]-004.001 and pDAS1580-[1]-020.016) and one wild-type line (KY160) at field stations in Indiana and Mississippi. Tobacco transplants were grown in the greenhouse by planting T1 seed in 72 well transplant flats (Hummert International) containing Metro 360 media according to growing conditions indicated above. The null plants were selectively removed by Liberty selection as previously described. The transplant plants were transported to the field stations and planted at either 14 or 24 inches apart using industrial vegetable planters. Drip irrigation at the Mississippi site and overhead irrigation at the Indiana site were used to keep plants growing vigorously.
(§2) The experimental design was a split plot design with 4 replications. The main plot was herbicide treatment and the sub-plot was tobacco line. The herbicide treatments were 2,4-D (dimethylamine salt) at 280, 560, 1120, 2240 and 4480 g ac/ha, triclopyr at 840 g ae/ha, fluroxypyr at 280 g ac/ha and an untreated control. Plots were one row by 25-30 ft. Herbicide treatments were applied 3-4 weeks after transplanting using compressed air backpack sprayer delivering 187 L/ha carrier volume at 130-200 kpa pressure. Visual rating of injury, growth inhibition, and epinasty were taken at 7, 14 and 21 days after treatment.

[3] = tested on: Roundup Ready (RR) control corn hybrid (2P782); assay: Field tolerance of corn: visual injury and brace root injury, control hybrid; assay type: in vivo, Zea mays
Experimental: Seeds were planted with cone planter on 40-inch row spacing at Wayside and 30 inch spacing at Fowler. […] Herbicide treatments were 2,4-D (dimethylamine salt) at 1120, 2240 and 4480 g ae/ha, triclopyr at 840 g ae/ha, fluroxypyr at 280 g ae/ha and an untreated control. The AAD-12 (v1) events contained the AHAS gene as a selectable marker. The F2 corn events were segregating so the AAD-12 (v1) plants were treated with imazethapyr at 70 g ae/ha to remove the null plants. Herbicide treatments were applied when corn reached the V6 stage using compressed air backpack sprayer delivering 187 L/ha carrier volume at 130-200 kpa pressure. Visual injury ratings were taken at 7, 14 and 21 days after treatment.

[4] = tested on: wildtype tobacco; assay: Auxinic herbicide cross tolerance of stacked tobacco, wildtype; assay type: in vivo, Nicotiana tabacum; details: KY160 wildtype control
Experimental: Homozygous AAD-12 (v1) (pDAS1580) and AAD-1 (v3) (pDAB721) plants (see PCT/US2005/014737 for the latter) were both reciprocally crossed and F1 seed was collected. The F1 seed from two reciprocal crosses of each gene were stratified and treated 4 reps of each cross were treated under the same spray regimen as used for the other testing with one of the following treatments: 70, 140, 280 g ac/ha fluroxypyr (selective for the AAD-12 (v1) gene); 280, 560, 1120 g ae/ha R-dichloroprop (selective for the AAD-1 (v3) gene); or 560, 1120, 2240 g ae/ha 2,4-D DMA (to confirm 2,4-D tolerance). Homozygous T2 plants of each gene were also planted for use as controls. Plants were graded at 3 and 14 DAT.

[5] = tested on: AAD-12 (v1) canola events 3759(20)018.001 and 3759(18)030.001; assay: Field tolerance of canola, AAD-12 events; assay type: in vivo, Brassica napus
Experimental: Field level tolerance trial was conducted on two AAD-12 (v1) events 3759(20)018.001 and 3759(18)030.001 and a wild-type canola (Nex710) in Fowler, Ind. The experimental design was a randomized complete block design with 3 replications. Herbicide treatments were 2,4-D (dimethylamine salt) at 280, 560, 1120, 2240 and 4480 g ac/ha, triclopyr at 840 g ae/ha, fluroxypyr at 280 g ae/ha and an untreated control. Within each herbicide treatment, single 20 ft row/event for event 3759(18)030.0011, 3759(18)018.001 and wild-type line (Nex710) were planted with a 4 row drill on 8 inch row spacing. Herbicide treatments were applied when canola reached the 4-6 leaf stage using compressed air backpack sprayer delivering 187 L/ha carrier volume at 130-200 kpa pressure. […]

[6] = tested on: wild-type tobacco line (KY160); assay: Field tolerance of tobacco, wild-type line; assay type: in vivo, Nicotiana tabacum
Experimental: as §1, §2

[7] = Fluroxypyr at 280 g ae/ha, 14 DAT

SMILES: Nc1c(Cl)c(F)nc(OCC(=O)O)c1Cl [Fluroxypyr]
- Average % Injury of Replicates 14 DAT ([1]; 35 g ae/ha): 85%
- Average % Injury of Replicates 14 DAT ([1]; 140 g ae/ha): 93%
- Average % Injury of Replicates 14 DAT ([1]; 560 g ae/ha): 100%
- average injury [2, 7]: 11%
- Average % Injury across locations at 14 DAT ([2]; pDAS1580-[1]-004.001, 280 GM AE/HA): 11%
- Average % Injury across locations at 14 DAT ([2]; pDAS1580-[1]-018.001, 280 GM AE/HA): 12%
- Average % Injury across locations at 14 DAT ([2]; pDAS1580-[1]-020.016, 280 GM AE/HA): 11%
- % Visual Injury 14DAT ([3]; 2P782 control, 280 g ae/ha): 11%
- brace root injury ([3]; Fluroxypyr at 280 g ae/ha): moderate brace root swelling and wandering
- visual injury [3, 7]: 11%
- Brace Root Injury Rating (0-10 scale) 28DAT ([3]; Wild-type NK603, 280 g ae/ha): 2
- Average % injury 14 DAT ([4]; 70 g ae/ha): 40%
- Average % injury 14 DAT ([4]; 140 g ae/ha): 65%
- % Visual Injury at 14 DAT ([5]; AAD-12 event 3759(18)030.001, 280 GM AE/HA): 8 a %
- % Visual Injury at 14 DAT ([5]; AAD-12 event 3759(20)018.001, 280 GM AE/HA): 7 a %
- average injury ([5]; Fluroxypyr at 280 g ae/ha, 5DAT): 8%
- injury [6, 7]: 99%
- Average % Injury across locations at 14 DAT ([6]; Wild type, 280 GM AE/HA): 99%
